Experimental data from PMC11413853, “Discovery of VU6007496: Challenges in the Development of an M1 Positive Allosteric Modulator Backup Candidate” (ACS Chemical Neuroscience, 2024).
“Also recorded” adds a separate entry of the source. Like-named read-outs stand apart in the source and are kept apart here.

Key:
[1] = Rat plasma and brain exposure, 100 mg/kg i.p., 3 h; assay type: in vivo; details: ip; for Kp at 3 h: brain and plasma, 100 mg/kg i.p.; for concentration at 3 h: 100 mg/kg i.p. in 30% captisol
Description: Due to the prevalence of metabolite A (VU6036463, 24) in both in vitro preparations and in vivo, we first synthesized and characterized 24. Utilizing intermediate 19 (Scheme 3), a Suzuki coupling with benzyl chloride 28 afforded a mixture of N-Boc protected analog 29 and N-H analog 29a in moderate isolated yield. Hydrolysis of the nitriles to the carboxylic acid, followed by a HATU-mediated coupling with tetrahydro-2H-pyran-4-amine delivered 24 in 81% yield over the two steps.[21] In our kinetic assays, 24 was an “active” metabolite, with the profile of an M1 ago-PAM. […] To ascertain if 24 could be the source of the adverse cholinergic events in rats, we dosed 11 and 24, in parallel, at a dose of 100 mg/kg i.p. in 30% captisol and prepared plasma and brain samples at a 3-h time point to determine brain exposure of the M1 ago-PAM 24. In this study, 11 achieved a total plasma concentration of 3.6 μM and a total brain concentration of 0.93 μM (Kp = 0.26).

mice = assay: Mouse phenotypic seizure liability assay (modified Racine score); assay type: in vivo; details: 100 mg/kg i.p.; for seizure liability / behavioral convulsions (modified Racine score): male C57Bl/6 mice, 3 h
Method: Brain plasma concentration ratio (Kp) was calculated by dividing brain concentration by plasma concentration for each animal. Unbound brain to unbound plasma concentration ratio (Kp,uu) is calculated using the following formula: Kp,uu = (Brain ng/g x brain fu)/(plasma ng/ml x plasma fu). […]
Behavioral Manifestations of Seizure Activity
To evaluate induction of behavioral manifestation of seizure activity, C57Bl/6 mice received administration of vehicle or 100 mg/kg M1 PAM. Compounds were formulated in 30% Captisol (11) or 10% Tween 80 (2-4 and 12) (pH 7.0) at a concentration of 10 mg/mL and injected i.p. (n = 3). Animals were monitored continuously and scored for behavioral manifestations of seizure activity at 5, 10, 15, and 30 min, and 1 and 3 h. Behavioral manifestations of seizures were scored using a modified Racine scoring system.2 Briefly, a score of 0 represents no behavior alterations; score 1, immobility, mouth and facial movements, or facial clonus; score 2, head nodding, tail extension; score 3, forelimb clonus, repetitive movements; score 4, rearing and tonic clonic seizure; and score 5, continuous rearing and falling, severe generalized tonic clonic seizure.

[2] = IV/PO pharmacokinetics, NHP; assay type: in vivo; details: NHP (cyno); for clearance / Vd / half-life: cynomolgus monkey, plasma, 1 mg/kg; for clearance: read-out: CLp; for Vd: read-out: Vss; for half-life: read-out: elimination t1/2 (converted)
Description: We next conducted multispecies IV/PO PK in parallel as a potential discerning data set.

4-strain Ames = 4-strain Ames assay; details: with and without S9
[3] = Rat IV plasma:brain level cassette; assay type: in vivo; details: male, 0.25 mg/kg; for concentration at 15 min: Sprague Dawley; for Kp uu at 0.25 h / Kp at 0.25 h: Sprague-Dawley, brain and plasma, 15 min; for Kp at 0.25 h: brain:plasma
Method: PAMs 11 and 12 were next evaluated in our rat IV plasma: brain level cassette paradigm (0.25 mg/kg compound, 1 mg/kg total dose, 10.1% EtOH:40.4% PEG400:49.5% DMSO) sampled at a set 15 min time point to assess CNS penetration. […] As mice are the most sensitive species to cholinergic mechanisms,[11],[13],[23],[24] we placed a high-throughput phenotypic seizure liability assay into the work-flow in which potent ago-PAMs, such as 2–5,[8]−[15] display robust Racine scale 4/5 behavioral convulsions that develop within minutes of dosing and last for the 3 h duration of the study. […] In parallel, we performed electrophysiology studies in mouse native tissue layer V medial prefrontal cortex (mPFC). […] Thus, both compounds cleared the major hurdles of CNS penetration and the liability of M1 overstimulation. […]
LC/MS/MS Bioanalysis of Samples from Plasma Protein Binding and Intrinsic Clearance […]
Samples were analyzed on a Thermo Electron TSQ Quantum Ultra triple quad mass spectrometer (San Jose, CA) via electrospray ionization (ESI) with two Themo Electron Accella pumps (San Jose, CA), and a Leap Technologies CTC PAL autosampler (Carrboro, NC). Analytes were separated by gradient elution on a dual column system with two Thermo Hypersil Gold (2.1 x 30 mm, 1.9 µm) columns (San Jose, CA) thermostated at 40 °C. HPLC mobile phase A was 0.1% formic acid in water and mobile phase B was 0.1% formic acid in acetonitrile. The gradient started […]
for 0.2 min; returned to 10% B in 0.1 min. The total run time was 1.3 min and the HPLC flow rate was 0.8 mL/min. While pump 1 ran the gradient method, pump 2 equilibrated the alternate column isocratically at 10% B. Compound optimization, data collection, and processing was performed using Thermo Electron's QuickQuan software (v2.3) and Xcalibur (v2.0.7 SP1).
In vivo DMPK experimental:
Determination of brain to plasma ratio:
All animal study procedures were approved by the Institutional Animal Care and Use Committee and were conducted in accordance with the National Institutes of Health regulations of animal care covered in Principles of Laboratory Animal Care (National Institutes of Health). All rats were fasted overnight prior to testing.
For determination of the brain over plasma ratio (Kp), compounds were formulated in 8% ethanol, 32% PEG400 and 60% DMSO (v/v/v) and administered as a single 0.2 mg/kg IV dose (1 mL/kg) to male, Sprague Dawley rats (n = 1) via injection into a surgically-implanted jugular vein catheter. At 15 min post dosing, blood sample was collected into chilled, K2EDTA anticoagulant-fortified tube and immediately placed on wet ice. The blood sample was then centrifuged (1700 rcf, 5 minutes, 4 °C) to obtain plasma sample. At the same post-administration time point, whole brain sample was obtained by rapid dissection, rinsed with PBS, and immediately frozen in individual tissue collection box (dry ice). All brain and plasma samples were stored at -80 °C until […]
Sample Analysis: Concentrations in plasma and brain homogenates were quantified by liquid chromatography tandem mass spectrometry (LC-MS/MS). Whole brains were homogenized in 3 mL of 70:30 IPA:water in a mini bead beater for 3 min, and centrifuged at 3,500 g for 5 min. 5 uL of the supernatant was diluted in 15 uL of blank plasma for quantification of the analytes. Plasma samples were centrifuged at 3,500 g for 5 min. A standard curve was generated by diluting the analytes DMSO stocks with blank plasma to obtain a final concentration of 10,000 ng/ml followed by a serial dilution down to 0.5 ng/ml. Quality controls were generated by a serial dilution of the 5,000 ng/ml standard curve solution in blank plasma to obtain 3 concentrations of 500, 50, and 5 ng/ml. 20 uL of brain diluted in plasma, plasma, blank plasma, standard curve and QC samples were loaded in a V-bottom 96-well plate. 120 uL of acetonitrile containing 0.05 uM carbamazepine (internal standard) was added to each well and the plate was centrifuged at 3,500 g for 5 min. 60 […]

[4] = GSH trapping study in human liver microsomes; assay type: in vitro ADME
[5] = brain, read-out: total brain concentration
[6] = plasma, read-out: total plasma concentration
[7] = brain, read-out: brain concentration
[8] = plasma, read-out: plasma concentration

Question: For `Cn1ccc(-c2ccc(Cc3cc(C(=O)NC4CCOCC4)nc4ccn(C)c34)cc2)n1` [compound 11], which Kp at 3 h [1] is on record?
Answer: The Kp at 3 h was 0.26.

Question: And the concentration at 3 h [1, 5]?
Answer: The concentration at 3 h was 930 nM.

Question: And the concentration at 3 h [1, 6]?
Answer: Its concentration at 3 h is 3600 nM.

Question: What about the “seizure liability / behavioral convulsions (modified Racine score)” value (mice) of the same molecule?
Answer: The value was “did not induce seizure liability; also recorded: did not cause any observed adverse effects”.

Question: What about the total brain exposure (mice; mouse) of the same molecule?
Answer: Its total brain exposure is 1.04 µM.

Question: What about the “F (%) po” value ([2]; dose iv/po 1/5 mg/kg) of the same molecule?
Answer: Its value is 59%.

Question: And the clearance ([2]; dose iv/po 1/5 mg/kg)?
Answer: The clearance was 5.9 mL/min/kg.

Question: What about the Vd ([2]; dose iv/po 1/5 mg/kg) of the same molecule?
Answer: The Vd was 0.39 L/kg.

Question: What about the half-life ([2]; dose iv/po 1/5 mg/kg) of the same molecule?
Answer: Its half-life is 1 h.

Question: What about the Ames result (4-strain Ames) of the same molecule?
Answer: The Ames result was “negative”.

Question: What about the concentration at 15 min [3, 7] of the same molecule?
Answer: Its concentration at 15 min is 39 ng/g.

Question: What about the concentration at 15 min [3, 8] of the same molecule?
Answer: Its concentration at 15 min is 92.2 ng/mL.

Question: What about the Kp uu at 0.25 h [3] of the same molecule?
Answer: The Kp uu at 0.25 h was 0.36.

Question: And the Kp at 0.25 h [3]?
Answer: Its Kp at 0.25 h is 0.42.

Question: And the “GSH trapping, reactive intermediates” value [4]?
Answer: Its value is “negative”.

Question: Which “seizure liability / behavioral convulsions (modified Racine score)” value (mice) does the source give for `Cn1ccc(-c2ccc(Cc3cc(C(=O)NC4CCOCC4)nc4ccsc34)cc2)n1` [compound 12] here?
Answer: The value was “did not induce seizure liability; also recorded: did not cause any observed adverse effects”.

Question: What about the “F (%) po” value ([2]; dose iv/po 1/3 mg/kg) of the same molecule?
Answer: The value was 79%.

Question: And the clearance ([2]; dose iv/po 1/3 mg/kg)?
Answer: The clearance was 2.3 mL/min/kg.

Question: What about the Vd ([2]; dose iv/po 1/3 mg/kg) of the same molecule?
Answer: Its Vd is 0.7 L/kg.

Question: And the half-life ([2]; dose iv/po 1/3 mg/kg)?
Answer: Its half-life is 4.5 h.

Question: What about the Ames result (4-strain Ames) of the same molecule?
Answer: The Ames result was “negative”.

Question: What about the concentration at 15 min [3, 7] of the same molecule?
Answer: Its concentration at 15 min is 120 ng/g.

Question: And the concentration at 15 min [3, 8]?
Answer: Its concentration at 15 min is 105 ng/mL.

Question: And the Kp uu at 0.25 h [3]?
Answer: Its Kp uu at 0.25 h is 0.7.

Question: And the Kp at 0.25 h [3]?
Answer: Its Kp at 0.25 h is 1.1.

Question: And the “GSH trapping, reactive intermediates” value [4]?
Answer: Its value is “negative”.

Question: For `Cn1ccc2nc(C(=O)NC3CCOCC3)cc(Cc3ccc(-c4cc[nH]n4)cc3)c21` [compound 24], which Kp at 3 h [1] is on record?
Answer: The Kp at 3 h was 0.07.

Question: What about the concentration at 3 h [1, 5] of the same molecule?
Answer: The concentration at 3 h was 80 nM.

Question: What about the concentration at 3 h [1, 6] of the same molecule?
Answer: The concentration at 3 h was 1200 nM.
